Numbers after ± are expanded uncertainties.
Experiment: mn = molality of the nth substance listed, in mol/kg
Details: 101 kPa, Liquid

[Br-].[K+] [potassium bromide] + O
Details | mass density [kg/m3] | speed of sound [m/s] | viscosity [mPa·s]
293.15 K, m1 = 0.2 | 1015.19 ± 0.3 | 1487 ± 1.6 | 0.985 ± 0.025
293.15 K, m1 = 0.3 | 1023.34 ± 0.32 | 1488.9 ± 1.6 | 0.975 ± 0.025
293.15 K, m1 = 0.4 | 1031.61 ± 0.33 | 1490.9 ± 1.6 | 0.97 ± 0.024
293.15 K, m1 = 0.5 | 1039.7 ± 0.35 | 1492.8 ± 1.6 | 0.97 ± 0.024
293.15 K, m1 = 0.6 | 1047.69 ± 0.36 | 1493.4 ± 1.6 | 0.95 ± 0.024
293.15 K, m1 = 0.7 | 1055.7 ± 0.38 | 1497.1 ± 1.6 | 0.936 ± 0.024
298.15 K, m1 = 0.2 | 1013.8 ± 0.3 | 1500.6 ± 1.6 | 0.873 ± 0.022
298.15 K, m1 = 0.3 | 1022.08 ± 0.32 | 1503.2 ± 1.6 | 0.863 ± 0.022
298.15 K, m1 = 0.4 | 1030.17 ± 0.33 | 1504 ± 1.6 | 0.86 ± 0.022
298.15 K, m1 = 0.5 | 1038.34 ± 0.34 | 1506.5 ± 1.6 | 0.857 ± 0.022
298.15 K, m1 = 0.6 | 1046.11 ± 0.36 | 1506 ± 1.6 | 0.846 ± 0.022
298.15 K, m1 = 0.7 | 1054.22 ± 0.37 | 1509.1 ± 1.6 | 0.832 ± 0.021
303.15 K, m1 = 0.2 | 1012.3 ± 0.3 | 1512.5 ± 1.6 | 0.782 ± 0.02
303.15 K, m1 = 0.3 | 1020.51 ± 0.31 | 1514.2 ± 1.6 | 0.772 ± 0.02
303.15 K, m1 = 0.4 | 1028.56 ± 0.33 | 1516 ± 1.6 | 0.769 ± 0.02
303.15 K, m1 = 0.5 | 1036.79 ± 0.34 | 1517.2 ± 1.6 | 0.765 ± 0.02
303.15 K, m1 = 0.6 | 1044.6 ± 0.35 | 1517.9 ± 1.6 | 0.76 ± 0.02
303.15 K, m1 = 0.7 | 1052.52 ± 0.37 | 1520.4 ± 1.6 | 0.74 ± 0.019
308.15 K, m1 = 0.2 | 1010.63 ± 0.3 | 1523.4 ± 1.6 | 0.698 ± 0.018
308.15 K, m1 = 0.3 | 1018.9 ± 0.31 | 1524.6 ± 1.6 | 0.688 ± 0.018
308.15 K, m1 = 0.4 | 1026.73 ± 0.32 | 1526.4 ± 1.6 | 0.682 ± 0.018
308.15 K, m1 = 0.5 | 1035 ± 0.34 | 1527.7 ± 1.6 | 0.678 ± 0.018
308.15 K, m1 = 0.6 | 1042.99 ± 0.35 | 1527.8 ± 1.6 | 0.674 ± 0.018
308.15 K, m1 = 0.7 | 1050.61 ± 0.36 | 1529.6 ± 1.6 | 0.664 ± 0.018
313.15 K, m1 = 0.2 | 1008.74 ± 0.29 | 1532.3 ± 1.6 | 0.622 ± 0.017
313.15 K, m1 = 0.3 | 1016.99 ± 0.31 | 1532.8 ± 1.6 | 0.612 ± 0.017
313.15 K, m1 = 0.4 | 1024.78 ± 0.32 | 1534.7 ± 1.6 | 0.608 ± 0.017
313.15 K, m1 = 0.5 | 1032.88 ± 0.33 | 1535.5 ± 1.6 | 0.605 ± 0.016
313.15 K, m1 = 0.6 | 1041.01 ± 0.35 | 1535.9 ± 1.6 | 0.602 ± 0.016
313.15 K, m1 = 0.7 | 1048.62 ± 0.36 | 1538.1 ± 1.6 | 0.595 ± 0.016

O=[N+]([O-])[O-].[K+] [potassium nitrate] + O
Details | mass density [kg/m3] | speed of sound [m/s] | viscosity [mPa·s]
293.15 K, m1 = 0.2 | 1010.62 ± 0.29 | 1490.7 ± 1.6 | 0.98 ± 0.025
293.15 K, m1 = 0.3 | 1016.69 ± 0.3 | 1493.5 ± 1.6 | 0.977 ± 0.025
293.15 K, m1 = 0.4 | 1022.68 ± 0.31 | 1497.4 ± 1.6 | 0.973 ± 0.024
293.15 K, m1 = 0.5 | 1028.6 ± 0.32 | 1501 ± 1.6 | 0.97 ± 0.024
293.15 K, m1 = 0.6 | 1034.61 ± 0.33 | 1504.4 ± 1.6 | 0.967 ± 0.024
293.15 K, m1 = 0.7 | 1040.37 ± 0.34 | 1507.6 ± 1.6 | 0.963 ± 0.024
298.15 K, m1 = 0.2 | 1009.41 ± 0.29 | 1504 ± 1.6 | 0.871 ± 0.022
298.15 K, m1 = 0.3 | 1015.47 ± 0.3 | 1507 ± 1.6 | 0.869 ± 0.022
298.15 K, m1 = 0.4 | 1021.25 ± 0.31 | 1510.1 ± 1.6 | 0.867 ± 0.022
298.15 K, m1 = 0.5 | 1027.13 ± 0.32 | 1513.4 ± 1.6 | 0.862 ± 0.022
298.15 K, m1 = 0.6 | 1032.84 ± 0.33 | 1517 ± 1.6 | 0.862 ± 0.022
298.15 K, m1 = 0.7 | 1038.56 ± 0.34 | 1520 ± 1.6 | 0.859 ± 0.022
303.15 K, m1 = 0.2 | 1007.8 ± 0.29 | 1515.6 ± 1.6 | 0.778 ± 0.02
303.15 K, m1 = 0.3 | 1013.82 ± 0.3 | 1518.7 ± 1.6 | 0.776 ± 0.02
303.15 K, m1 = 0.4 | 1019.62 ± 0.31 | 1522 ± 1.6 | 0.775 ± 0.02
303.15 K, m1 = 0.5 | 1025.4 ± 0.32 | 1524.7 ± 1.6 | 0.774 ± 0.02
303.15 K, m1 = 0.6 | 1031.2 ± 0.33 | 1528.4 ± 1.6 | 0.773 ± 0.02
303.15 K, m1 = 0.7 | 1036.79 ± 0.33 | 1530.9 ± 1.6 | 0.772 ± 0.02
308.15 K, m1 = 0.2 | 1006.09 ± 0.28 | 1526 ± 1.6 | 0.672 ± 0.018
308.15 K, m1 = 0.3 | 1011.97 ± 0.29 | 1528.8 ± 1.6 | 0.67 ± 0.018
308.15 K, m1 = 0.4 | 1017.79 ± 0.3 | 1531.4 ± 1.6 | 0.669 ± 0.018
308.15 K, m1 = 0.5 | 1023.58 ± 0.31 | 1534.3 ± 1.6 | 0.678 ± 0.018
308.15 K, m1 = 0.6 | 1029.21 ± 0.32 | 1536.8 ± 1.6 | 0.666 ± 0.018
308.15 K, m1 = 0.7 | 1034.87 ± 0.33 | 1539.4 ± 1.6 | 0.665 ± 0.018
313.15 K, m1 = 0.2 | 1004.28 ± 0.28 | 1534.6 ± 1.6 | 0.595 ± 0.016
313.15 K, m1 = 0.3 | 1009.98 ± 0.29 | 1537.5 ± 1.6 | 0.593 ± 0.016
313.15 K, m1 = 0.4 | 1015.89 ± 0.3 | 1539.7 ± 1.6 | 0.585 ± 0.016
313.15 K, m1 = 0.5 | 1021.56 ± 0.31 | 1542.5 ± 1.6 | 0.577 ± 0.016
313.15 K, m1 = 0.6 | 1027.23 ± 0.32 | 1544.8 ± 1.6 | 0.569 ± 0.016
313.15 K, m1 = 0.7 | 1032.76 ± 0.33 | 1547.7 ± 1.6 | 0.563 ± 0.016

Reference: the NIST ThermoML archive (doi:10.1021/je1012789)
